Experimental data taken from ChEMBL document CHEMBL1126058, “Development of potent and selective CCK-A receptor agonists from Boc-CCK-4: tetrapeptides containing Lys(N epsilon)-amide residues” (J Med Chem, 1992).
Where a SMILES comes first, the peptide text is derived from it. [ ]: non-standard residue; d: D form. The star is where a group is joined. Acryloyl(3-(3-pyridyl),E) = O=C(/C=C/c1cccnc1)*; 2Naphthoyl(6-OH) = O=C(c1ccc2cc(O)ccc2c1)*; Dihydrocaffeoyl = O=C(CCc1ccc(O)c(O)c1)*; X35 = O=C(/C=C\c1ccc(OS(=O)(=O)O)cc1)*; Desaminotyrosyl = O=C(CCc1ccc(O)cc1)*; Butanoyl(4-Ph) = O=C(CCCc1ccccc1)*; 1Naphthoyl = O=C(c1cccc2ccccc12)*; 2Naphthoyl = O=C(c1ccc2ccccc2c1)*; NMeF = CN[C@@H](Cc1ccccc1)C(=O)O; X34 = O=C(/C=C\c1ccc(Cl)cc1)*; Boc = CC(C)(C)OC(=O)*

Legend:
Cavia porcellus [1] = species: Cavia porcellus; experiment: Hydrolysis of phosphoinositide (PI) relative to maximal response elicited by CCK-8 in guinea pig pancreas.; type: functional
Cavia porcellus [2] = species: Cavia porcellus; experiment: Stimulation of amylase release in guinea pig pancreas; type: functional
[3] = target: T1, Cholecystokinin receptor type A (Cavia porcellus, UniProt Q63931); experiment: Inhibition of specific binding of [125I]BH-CCK-8 in guinea pig pancreas.
T1 sequence (Q63931 whole entry): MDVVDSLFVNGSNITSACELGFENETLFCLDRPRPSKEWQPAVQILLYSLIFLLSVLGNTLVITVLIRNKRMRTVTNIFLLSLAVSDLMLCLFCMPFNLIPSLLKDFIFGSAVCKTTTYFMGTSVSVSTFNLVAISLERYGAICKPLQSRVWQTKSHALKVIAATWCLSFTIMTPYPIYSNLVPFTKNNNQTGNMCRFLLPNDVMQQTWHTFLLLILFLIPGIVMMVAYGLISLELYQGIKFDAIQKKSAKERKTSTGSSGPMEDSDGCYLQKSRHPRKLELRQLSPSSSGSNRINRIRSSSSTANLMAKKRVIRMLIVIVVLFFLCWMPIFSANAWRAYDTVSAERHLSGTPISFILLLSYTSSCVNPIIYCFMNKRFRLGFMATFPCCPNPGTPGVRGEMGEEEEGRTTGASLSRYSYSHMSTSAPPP

EC50 (Cavia porcellus [2]) | IC50 [3] | SMILES | Max (Cavia porcellus [1])
2600 nM |  | CSCC[C@H](NC(=O)[C@H](Cc1c[nH]c2ccccc12)NC(=O)OC(C)(C)C)C(=O)N[C@@H](CC(=O)O)C(=O)N[C@@H](Cc1ccccc1)C(N)=O | 40%
79 nM | 57 nM | CC(C)(C)OC(=O)N[C@@H](Cc1c[nH]c2ccccc12)C(=O)N[C@@H](CCCCNC(=O)c1cccc2ccccc12)C(=O)N[C@@H](CC(=O)O)C(=O)N[C@@H](Cc1ccccc1)C(N)=O (Boc-WK(1Naphthoyl)DF-NH2) | 61%
3.5 nM | 4.5 nM | CC(C)(C)OC(=O)N[C@@H](Cc1c[nH]c2ccccc12)C(=O)N[C@@H](CCCCNC(=O)c1ccc2cc(O)ccc2c1)C(=O)N[C@@H](CC(=O)O)C(=O)N[C@@H](Cc1ccccc1)C(N)=O (Boc-WK(2Naphthoyl(6-OH))DF-NH2) | 50%
2.4 nM | 3.8 nM | CN(C(=O)[C@H](CC(=O)O)NC(=O)[C@H](CCCCNC(=O)c1ccc2cc(O)ccc2c1)NC(=O)[C@H](Cc1c[nH]c2ccccc12)NC(=O)OC(C)(C)C)[C@@H](Cc1ccccc1)C(N)=O (Boc-WK(2Naphthoyl(6-OH))D[NMeF]-NH2) | 52%
4 nM | 14 nM | CC(C)(C)OC(=O)N[C@@H](Cc1c[nH]c2ccccc12)C(=O)N[C@@H](CCCCNC(=O)c1ccc2ccccc2c1)C(=O)N[C@@H](CC(=O)O)C(=O)N[C@@H](Cc1ccccc1)C(N)=O (Boc-WK(2Naphthoyl)DF-NH2) | 36%
28 nM | 28 nM | CN(C(=O)[C@H](CC(=O)O)NC(=O)[C@H](CCCCNC(=O)/C=C/c1cccnc1)NC(=O)[C@H](Cc1c[nH]c2ccccc12)NC(=O)OC(C)(C)C)[C@@H](Cc1ccccc1)C(N)=O (Boc-WK(Acryloyl(3-(3-pyridyl),E))D[NMeF]-NH2) | 74%
30000 nM | 910 nM | CC(C)(C)OC(=O)N[C@@H](Cc1c[nH]c2ccccc12)C(=O)N[C@@H](CCCCNC(=O)CCCc1ccccc1)C(=O)N[C@@H](CC(=O)O)C(=O)N[C@@H](Cc1ccccc1)C(N)=O (Boc-WK(Butanoyl(4-Ph))DF-NH2) | 19%
92 nM | 120 nM | CC(C)(C)OC(=O)N[C@@H](Cc1c[nH]c2ccccc12)C(=O)N[C@@H](CCCCNC(=O)CCc1ccc(O)cc1)C(=O)N[C@@H](CC(=O)O)C(=O)N[C@@H](Cc1ccccc1)C(N)=O (Boc-WK(Desaminotyrosyl)DF-NH2) | 77%
32 nM | 30 nM | CN(C(=O)[C@H](CC(=O)O)NC(=O)[C@H](CCCCNC(=O)CCc1ccc(O)cc1)NC(=O)[C@H](Cc1c[nH]c2ccccc12)NC(=O)OC(C)(C)C)[C@@H](Cc1ccccc1)C(N)=O (Boc-WK(Desaminotyrosyl)D[NMeF]-NH2) | 77%
300 nM | 160 nM | CC(C)(C)OC(=O)N[C@@H](Cc1c[nH]c2ccccc12)C(=O)N[C@@H](CCCCNC(=O)CCc1ccc(O)c(O)c1)C(=O)N[C@@H](CC(=O)O)C(=O)N[C@@H](Cc1ccccc1)C(N)=O (Boc-WK(Dihydrocaffeoyl)DF-NH2) | 44%
79 nM |  | CC(C)(C)OC(=O)N[C@@H](Cc1c[nH]c2ccccc12)C(=O)N[C@@H](CCCCNC(=O)/C=C\c1ccc(Cl)cc1)C(=O)N[C@@H](CC(=O)O)C(=O)N[C@@H](Cc1ccccc1)C(N)=O (Boc-WK(X34)DF-NH2) | 66%
7.2 nM |  | CC(C)(C)OC(=O)N[C@@H](Cc1c[nH]c2ccccc12)C(=O)N[C@@H](CCCCNC(=O)/C=C\c1ccc(OS(=O)(=O)O)cc1)C(=O)N[C@@H](CC(=O)O)C(=O)N[C@@H](Cc1ccccc1)C(N)=O (Boc-WK(X35)DF-NH2) | 72%

SMILES | EC50 (Cavia porcellus [2]) | IC50 [3] | Max (Cavia porcellus [1])
CC(C)(C)OC(=O)N[C@@H](Cc1c[nH]c2ccccc12)C(=O)N[C@@H](CCCCNC(=O)/C=C/c1cccnc1)C(=O)N[C@@H](CC(=O)O)C(=O)N[C@@H](Cc1ccccc1)C(N)=O (Boc-WK(Acryloyl(3-(3-pyridyl),E))DF-NH2) | 38 nM | 21 nM | 60%
